In brackets after ≈: the same amount, converted by molar mass. Each block holds one compound with its values, some of them ahead of it. Activity calls are given as the source filed them. No cut-off for these calls is given here.
What was measured:
[1] = target: T1, Hematopoietic prostaglandin D synthase (Homo sapiens, UniProt O60760); experiment: Inhibition of human hematopoietic prostaglandin D2 synthase by fluorescence polarisation assay
[2] = target: T1, Hematopoietic prostaglandin D synthase; experiment: Inhibition of hematopoietic prostaglandin D2 synthase in IgE and IL-5 primed human LAD2 cells assessed as reduction in PGD2 production by mass spectrometry; assay type: cell-based
[3] = target: T1, Hematopoietic prostaglandin D synthase; experiment: Inhibition of human hematopoietic prostaglandin D2 synthase by rapid fire mass spectrometry assay
[4] = target: T1, Hematopoietic prostaglandin D synthase; experiment: Inhibition of human hematopoietic prostaglandin D2 synthase at 30 uM by fluorescence polarisation assay
[5] = target: T1, Hematopoietic prostaglandin D synthase; experiment: Inhibition of human hematopoietic prostaglandin D2 synthase at 100 uM by fluorescence polarisation assay
[6] = Blood clearance in rat at 1 mg/kg, iv or 3 mg/kg, po by LC-MS/MS method; assay type: ADME, organism-based
Mus musculus = experiment: Reduction in PGD2 level in C57/BL6/J mouse peritoneal lavage supernatants at 30 mg/kg, po measured 40 mins after compound 48/80 injection by enzyme immunoassay pre-treated 30 mins before compound 48/80 injection; assay type: functional, organism-based; set-up: dose 30 mg/kg
[7] = Protein binding in rat whole blood at 1 mg/kg, iv or 3 mg/kg, po by LC-MS/MS method; assay type: ADME, organism-based; details: read-out: PB (converted)
[8] = Aqueous solubility in fed simulated intestinal fluid at pH 6.5; assay type: physicochemical
[9] = Fraction unbound in rat at 1 mg/kg, iv or 3 mg/kg, po by LC-MS/MS method; assay type: ADME, organism-based; details: in vivo
[10] = Aqueous solubility in fasted simulated intestinal fluid at pH 6.5; assay type: physicochemical
[11] = Cmax in rat at 3 mg/kg, po by LC-MS/MS method; assay type: ADME, organism-based; set-up: dose 3 mg/kg, route oral; details: in vivo
[12] = Half life in rat at 1 mg/kg, iv or 3 mg/kg, po by LC-MS/MS method; assay type: ADME, organism-based; details: in vivo
[13] = target: T1, Hematopoietic prostaglandin D synthase; experiment: Inhibition of human hematopoietic prostaglandin D2 synthase at 10 nM by fluorescence polarisation assay
[14] = AUC (0 to infinity) in rat at 1 mg/kg, iv or 3 mg/kg, po by LC-MS/MS method; assay type: ADME, organism-based; details: plasma
[15] = Oral bioavailability in rat at 3 mg/kg by LC-MS/MS method; assay type: ADME, organism-based; details: in vivo
[16] = Aqueous solubility in simulated gastric fluid at pH 1.6; assay type: physicochemical
[17] = Tmax in rat at 3 mg/kg, po by LC-MS/MS method; assay type: ADME, organism-based; set-up: dose 3 mg/kg, route oral; details: in vivo
[18] = Volume of distribution at steady state in rat at 1 mg/kg, iv or 3 mg/kg, po by LC-MS/MS method; assay type: ADME, organism-based; details: in vivo, read-out: Vdss
[19] = Aqueous solubility in water; assay type: physicochemical
Rattus norvegicus = experiment: fCmax in rat at 3 mg/kg, po by LC-MS/MS method; assay type: ADME, organism-based; set-up: dose 3 mg/kg, route oral; details: in vivo

T1 sequence (O60760 whole entry): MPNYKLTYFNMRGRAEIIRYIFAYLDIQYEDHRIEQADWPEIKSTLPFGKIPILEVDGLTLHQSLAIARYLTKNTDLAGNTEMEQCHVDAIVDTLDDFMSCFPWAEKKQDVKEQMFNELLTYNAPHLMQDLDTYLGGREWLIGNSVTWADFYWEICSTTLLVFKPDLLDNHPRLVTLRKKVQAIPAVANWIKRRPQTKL

IC50 [1]: 40 nM | IC50 [2]: 4000 nM | IC50 [3]: 501 nM
SMILES: CCNC(=O)N1Cc2cc(-c3c[nH]nc3C3CC3)cnc2C1

inhibition [4]: 52%
SMILES: Cc1n[nH]cc1-c1ccc(C#N)cc1

inhibition [5]: 58%
SMILES: c1cncc(-c2cn[nH]c2)c1

IC50 [1]: 8500 nM
SMILES: c1nc(NC2CCCC2)c2cn[nH]c2n1

clearance [6]: 33 mL/min/kg | IC50 [1]: < 10 nM | fraction unbound [7]: 0.055 | solubility [8]: 136 µg/mL (≈ 403 µM) | fraction unbound [9]: 0.055 | solubility [10]: 109 µg/mL (≈ 323 µM) | Cmax [11]: 196 ng/mL | half-life [12]: 2.2 h | inhibition [13]: 66% | IC50 [2]: 317 nM | AUC(0-inf) [14]: 295 ng·h/mL | bioavailability [15]: 19% | solubility [16]: 885 µg/mL (≈ 2620 µM) | Tmax [17]: 0.5 h | IC50 [3]: 40 nM | Vd [18]: 2.8 L/kg | solubility [19]: 52 µg/mL (≈ 154 µM) | fCmax (Rattus norvegicus): 30 nM
SMILES: O=C(NC1CCCC1)N1Cc2cc(-c3c[nH]nc3C3CC3)cnc2C1
Activity (Mus musculus): Active

solubility [8]: 44 µg/mL (≈ 115 µM) | solubility [10]: 31.2 µg/mL (≈ 81.8 µM) | solubility [16]: 48.9 µg/mL (≈ 128 µM) | solubility [19]: 16.5 µg/mL (≈ 43.3 µM)
SMILES: Cn1nnnc1N1CCC(NC(=O)c2ccc(-c3cccc(F)c3)nc2)CC1

IC50 [1]: 17000 nM
SMILES: c1cncc(-c2c[nH]nc2C2CC2)c1

IC50 [1]: 500 nM
SMILES: c1nc(NC2CCCC2)c2cc[nH]c2n1

solubility [8]: < 1 µg/mL | solubility [10]: 4.6 µg/mL (≈ 13.2 µM) | solubility [16]: 203 µg/mL (≈ 584 µM) | solubility [19]: 4.4 µg/mL (≈ 12.7 µM)
SMILES: Cc1cn(NC(=O)c2cnc(-c3ccccn3)nc2)c2ccc(F)cc12

Source: ChEMBL document CHEMBL3132782, “Identification of orally bioavailable small-molecule inhibitors of hematopoietic prostaglandin D2 synthase using X-ray fragment based drug discovery” (Medchemcomm, 2014)
